Results: ChEMBL document CHEMBL1649487, “Molecular characteristics of travel-related extended-spectrum-beta-lactamase-producing Escherichia coli isolates from the Calgary Health Region” (2009)

Experiments:
Type in all cases: functional
Escherichia coli [1] = experiment: Antimicrobial activity against Extended-spectrum beta-lactamase producing Escherichia coli clinical isolate assessed as resistant isolate
Escherichia coli [2] = experiment: Antimicrobial activity against Extended-spectrum beta-lactamase producing Escherichia coli clinical isolate assessed as resistant isolate in presence of beta-lactamase inhibitor clavulanic acid
Escherichia coli [3] = experiment: Antimicrobial activity against Extended-spectrum beta-lactamase producing Escherichia coli clinical isolate assessed as resistant isolate in presence of beta-lactamase inhibitor Tazobactam

Molecule	Activity (Escherichia coli [1]) [%]	other results
NCC[C@H](O)C(=O)N[C@@H]1C[C@H](N)[C@@H](O[C@H]2O[C@H](CN)[C@@H](O)[C@H](O)[C@H]2O)[C@H](O)[C@H]1O[C@H]1O[C@H](CO)[C@@H](O)[C@H](N)[C@H]1O [AMIKACIN]	1	
CC1(C)S[C@@H]2[C@H](NC(=O)[C@H](N)c3ccc(O)cc3)C(=O)N2[C@H]1C(=O)O [AMOXICILLIN]		Activity (Escherichia coli [2]): 74%
O=C1CN(/N=C/c2ccc([N+](=O)[O-])o2)C(=O)N1 [NITROFURANTOIN]	7	
CCN1CCN(C(=O)N[C@@H](C(=O)N[C@@H]2C(=O)N3[C@@H]2SC(C)(C)[C@@H]3C(=O)O)c2ccccc2)C(=O)C1=O [PIPERACILLIN]		Activity (Escherichia coli [3]): 47%
NC[C@H]1O[C@H](O[C@H]2[C@H](O)[C@@H](O[C@H]3O[C@H](CO)[C@@H](O)[C@H](N)[C@H]3O)[C@H](N)C[C@@H]2N)[C@H](N)C[C@@H]1O [TOBRAMYCIN]	50	
GENTAMICIN	42	
